# Tests used:
# A549 cells [1] = assay: MTT antiproliferative assay, A549; type: cell-based; conditions: Homo sapiens, 72 h;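 also: formazan read-out dissolved in DMSO, each compound assayed three times, IC50 computed with Bliss software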
# Procedure: The cell lines used in the experiment were available from the Cell Culture Collection of Chinese Academy of Sciences (Shanghai Institutes for Biological Sciences, Chinese Academy of Sciences). […] The formazan crystals were dissolved in 100 µl of DMSO in each well. […] All compounds were tested three times in each of the cell lines. The results, expressed as inhibition rates or IC50 (half-maximal inhibitory concentration), were the averages of two determinations and calculated by using the Bacus Laboratories Incorporated Slide Scanner (Bliss) software.
# MCF-7 cells = assay: MTT antiproliferative assay, MCF-7; type: cell-based; conditions: Homo sapiens, MCF7; MTT, 72 h, MCF-7 cells; read-out: IC50 MCF-7
# Procedure: (§1) The cell lines used in the experiment were available from the Cell Culture Collection of Chinese Academy of Sciences (Shanghai Institutes for Biological Sciences, Chinese Academy of Sciences). Referring to the previous experimental methods of our research, all cells were cultured in suitable medium such as DMEM or RPMI-1640 containing 10% fetal bovine serum at 37°C in 5% CO2 and propagated for 24 h. Then the compounds with different gradient concentrations were added into the medium and incubated for 72 h, and then MTT (thiazolyl blue tetrazolium bromide) with a concentration of 5 µg/ml was added to every well for 4 h at 37°C. The formazan crystals were dissolved in 100 µl of DMSO in each well. The absorbancy at 492 nm (for absorbance of MTT formazan) and 630 nm (for the reference wavelength) was measured with an ELISA reader. All compounds were tested three times in each of the cell lines. The results, expressed as inhibition rates or IC50 (half-maximal inhibitory concentration), were the averages of two determinations and calculated by using the Bacus Laboratories Incorporated Slide Scanner (Bliss) software.
# Hela cells = assay: MTT antiproliferative assay, Hela; type: cell-based; conditions: Homo sapiens; MTT, 72 h, Hela cells; read-out: IC50 Hela
# Procedure: as §1
# c-Met kinase = c-Met kinase (Homo sapiens, UniProt P08581); assay: c-Met kinase inhibition assay; type: biochemical
# VEGFR-2 = VEGFR-2 (Homo sapiens, UniProt P35968); assay: VEGFR-2 kinase inhibition assay; type: biochemical
# Procedure: (§2) The kinase assay was performed by Pratzer Biotechnology Co. Ltd. (Changsha, China).
# EGFR^WT = EGFR^WT (Homo sapiens, UniProt P00533); assay: EGFR^wt kinase inhibition assay; type: biochemical
# Procedure: as §2
# PC-9 cells = assay: Antiproliferative activity, PC-9; type: cell-based; conditions: Homo sapiens
# Procedure: as §1
# H460 cells = assay: Antiproliferative activity, H460; type: cell-based; conditions: Homo sapiens, NCI-H460
# Procedure: as §1
# H1975 cells = assay: Antiproliferative activity, H1975; type: cell-based; conditions: Homo sapiens, NCI-H1975
# Procedure: as §1
# A549 cells [2] = assay: Cell cycle assay by flow cytometry; type: cell-based, human; conditions: A549, 1.0 μM, 72 h; control 61.14%
# Procedure: A549 cells were placed in 12-well plates at a density of 10^6/well with F-12 K containing 10% FBS as the medium, and the experiment was conducted on alternate days. Cells (1–5×10^6) were collected, centrifuged at 1,500 rpm for 5 min to remove the supernatant, washed with PBS twice, and gently mixed with 200 μl of cell cycle rapid detection reagent to make a single-cell suspension, which was detected by flow cytometry within 1 h.
# We treated A549 cells with 1.0 μM compound 17l for 72 h and determined its effect on cell cycle by flow cytometry to further reveal the growth inhibition mechanism of the target compound on tumor cells. […] At the same time, the content of cell block rate decreased in S phase, but the change in G2/M phase was not obvious.
# A549 cells [3] = assay: Annexin V/PI apoptosis assay by flow cytometry; type: cell-based, human; conditions: 72 h; for Q1-LR: control 1.68%; for Q1-UL: control 1.87%; for Q1-UR: control 2.05%; for total apoptosis rate: control 3.73%; for Q1-LL: control 94.40%
# Procedure: The cell apoptosis assay was performed by Pratzer Biotechnology Co. Ltd. (Changsha, China). After A549 cells were resuscitated, the cells were cultured in F-12 K medium containing 10% FBS and 1% pen/strep in incubator with 5% CO2 at 37°C. A549 cells, being in the logarithmic growth phase, were digested with […] and laid in six-well plates with a density of 2 × 10^5/well, and the cells were collected centrifugally after 72 h of treatment with each compound. The cells were washed twice with PBS, which was precooled to 4°C. Then the cells were suspended with 500 μl of buffer, and the concentration was adjusted to 10^6/ml. A 100-μl suspension was placed in a 5-ml flow tube, adding 5 µl of Annexin V-APC, adding 5 μl of propidiμm iodide, and the mixture was mixed and incubated at room temperature without light for 15 min detecting cell apoptosis by flow cytometry (FACS).
# The assay of annexin V/PI staining was performed to deeper research the mechanism of apoptosis induced by compound 17l in A549 cells.
# p-c-Met (Tyr1003) = assay: Western blot, p-c-Met in A549 cells; type: cell-based, human; conditions: A549, 24 h, different concentrations
# Source text: (§3) Western blot was utilized to further analyze the effect of compound 17l on the downstream signal protein of c-Met and VEGFR-2. The detailed operations refer to the previous method of our research group ([Zhao et al., 2020]). […] The extracted protein was transferred to a PVDF membrane in ice bath conditions after 10% SDS polyacrylamide gel electrophoresis separating the protein by size. The PVDF membrane was rinsed with phosphate-buffered solution (PBST), shaken in a Petri dish three times for 3–5 min every time, and incubated with different target proteins (p-c-Met, p-VEGFR-2, p-ERK 1/2, p-AKT, and GADPH). Finally, the film was exposed and developed in a darkroom. Image Lab software (Molecular Dynamics, Sunnyvale, CA, USA) was utilized to analyze the shadow density of each band, which was then expressed as a percentage of GDPDH band density ([Zhao et al., 2020]).
# (§4) We further verified the effect of compound 17l on c-Met and downstream signaling pathways. We treated A549 cell line with different doses of compound 17l for 24 h to measure its phosphorylation inhibition in different pathways.
# p-VEGFR-2 (Tyr1059) = assay: Western blot, p-VEGFR-2 in A549 cells; type: cell-based, human; conditions: A549, 24 h, different concentrations
# Source text: as §3, §4
# ERK1/2 and AKT = assay: Western blot, downstream ERK1/2 and AKT phosphorylation in A549 cells; type: cell-based, human; conditions: A549, 24 h, 1.00 μM
# Source text: as §3, §4
# sheep red blood cells = assay: Hemolytic test; conditions: 16–256 μg/ml, at the highest concentration within the study range
# Procedure: The hemolytic toxicity of 17l was studied with 1% Triton and 0.9% normal saline, and the former was a positive control, and the latter was a negative control. […] (1%), 0.9% normal saline, and compound 17l of different concentrations prepared in 0.9% normal saline reacted with the prepared sheep red blood cells, respectively. Photos were taken, and the absorbance value was measured by ultraviolet spectrophotometer at a wavelength of 540 nm, and hemolysis ratio (hemolysis %) was calculated according to the following formula ([Guo et al., 2017]). The experiment was repeated twice in parallel. Hemolysis %=Abs(experimental group)−Abs(negative control)/Abs(positive control)−Abs(negative control)
# The best compound 17l with antiproliferative activity and kinase inhibition activity was selected to detect its hemolytic toxicity at a gradient concentration of 16–256 μg/ml, and the safety of intravenous administration was preliminarily investigated. […] Its hemolytic toxicity meets the requirements of intravenous administration, which provides a basis for further in vivo research.
# Chain of EGFR^WT (P00533 25-1210): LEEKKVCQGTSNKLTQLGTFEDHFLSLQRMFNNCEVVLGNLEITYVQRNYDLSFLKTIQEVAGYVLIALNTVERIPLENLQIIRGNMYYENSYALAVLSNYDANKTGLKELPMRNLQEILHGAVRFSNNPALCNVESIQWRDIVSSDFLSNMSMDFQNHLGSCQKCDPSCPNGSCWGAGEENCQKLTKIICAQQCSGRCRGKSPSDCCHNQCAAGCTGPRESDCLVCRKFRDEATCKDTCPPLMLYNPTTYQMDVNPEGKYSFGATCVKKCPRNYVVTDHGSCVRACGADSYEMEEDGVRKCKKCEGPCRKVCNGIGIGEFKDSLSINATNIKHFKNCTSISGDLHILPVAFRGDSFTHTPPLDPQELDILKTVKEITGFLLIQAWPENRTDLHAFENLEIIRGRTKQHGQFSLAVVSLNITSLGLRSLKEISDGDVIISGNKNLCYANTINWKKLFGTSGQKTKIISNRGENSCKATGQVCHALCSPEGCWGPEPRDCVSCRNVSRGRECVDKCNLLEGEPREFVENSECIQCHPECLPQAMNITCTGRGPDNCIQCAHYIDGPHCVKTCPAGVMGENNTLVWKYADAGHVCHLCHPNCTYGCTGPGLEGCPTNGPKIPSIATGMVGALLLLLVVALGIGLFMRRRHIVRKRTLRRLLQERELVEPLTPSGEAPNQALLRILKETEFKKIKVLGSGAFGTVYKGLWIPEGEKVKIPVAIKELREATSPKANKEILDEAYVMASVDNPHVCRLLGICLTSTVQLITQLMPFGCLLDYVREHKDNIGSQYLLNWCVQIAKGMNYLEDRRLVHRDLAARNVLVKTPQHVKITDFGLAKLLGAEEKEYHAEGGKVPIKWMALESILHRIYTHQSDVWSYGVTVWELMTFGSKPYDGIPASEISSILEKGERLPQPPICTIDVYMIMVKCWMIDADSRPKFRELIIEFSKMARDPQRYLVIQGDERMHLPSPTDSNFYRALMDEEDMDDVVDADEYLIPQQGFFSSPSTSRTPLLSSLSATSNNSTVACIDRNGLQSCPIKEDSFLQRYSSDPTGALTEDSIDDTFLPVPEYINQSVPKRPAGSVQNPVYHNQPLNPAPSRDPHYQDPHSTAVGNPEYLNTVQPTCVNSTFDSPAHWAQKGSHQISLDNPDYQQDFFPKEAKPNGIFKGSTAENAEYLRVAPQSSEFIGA
# Chain of c-Met kinase (P08581 25-1390): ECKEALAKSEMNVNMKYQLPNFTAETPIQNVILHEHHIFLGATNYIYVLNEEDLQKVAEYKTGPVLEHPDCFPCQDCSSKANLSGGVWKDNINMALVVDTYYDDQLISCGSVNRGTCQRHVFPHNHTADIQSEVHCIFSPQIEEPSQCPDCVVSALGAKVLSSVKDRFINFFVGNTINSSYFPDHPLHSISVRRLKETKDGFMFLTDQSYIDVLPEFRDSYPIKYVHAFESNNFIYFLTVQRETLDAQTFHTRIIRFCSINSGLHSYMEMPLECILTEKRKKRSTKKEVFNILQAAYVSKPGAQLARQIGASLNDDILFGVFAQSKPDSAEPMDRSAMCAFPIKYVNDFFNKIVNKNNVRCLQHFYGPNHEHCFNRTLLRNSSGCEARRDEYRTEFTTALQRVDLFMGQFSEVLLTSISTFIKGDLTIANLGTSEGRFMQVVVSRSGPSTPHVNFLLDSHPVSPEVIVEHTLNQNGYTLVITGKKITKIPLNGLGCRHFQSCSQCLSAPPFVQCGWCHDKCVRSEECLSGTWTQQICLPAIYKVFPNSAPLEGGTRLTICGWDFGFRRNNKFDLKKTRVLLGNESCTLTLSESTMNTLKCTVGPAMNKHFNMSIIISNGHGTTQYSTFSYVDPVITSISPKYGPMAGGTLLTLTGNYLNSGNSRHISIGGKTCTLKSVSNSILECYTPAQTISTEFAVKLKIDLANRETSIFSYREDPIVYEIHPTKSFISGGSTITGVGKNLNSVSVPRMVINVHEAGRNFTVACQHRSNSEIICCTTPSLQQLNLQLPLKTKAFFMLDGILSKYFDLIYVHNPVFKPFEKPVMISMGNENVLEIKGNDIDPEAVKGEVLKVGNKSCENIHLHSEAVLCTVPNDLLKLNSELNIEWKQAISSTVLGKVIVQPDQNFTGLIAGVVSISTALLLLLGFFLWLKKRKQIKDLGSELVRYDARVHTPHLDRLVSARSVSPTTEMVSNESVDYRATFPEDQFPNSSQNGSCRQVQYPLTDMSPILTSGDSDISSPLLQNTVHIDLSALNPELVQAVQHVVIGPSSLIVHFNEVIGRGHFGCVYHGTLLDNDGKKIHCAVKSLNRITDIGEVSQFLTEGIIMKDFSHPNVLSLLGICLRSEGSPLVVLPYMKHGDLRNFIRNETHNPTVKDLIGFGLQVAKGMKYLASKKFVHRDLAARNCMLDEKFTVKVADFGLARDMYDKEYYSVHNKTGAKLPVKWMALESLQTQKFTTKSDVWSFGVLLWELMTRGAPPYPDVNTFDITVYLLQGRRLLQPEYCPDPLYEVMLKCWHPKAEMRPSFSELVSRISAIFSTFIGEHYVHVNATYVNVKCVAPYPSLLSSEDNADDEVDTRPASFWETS
# Chain of VEGFR-2 (P35968 20-1356): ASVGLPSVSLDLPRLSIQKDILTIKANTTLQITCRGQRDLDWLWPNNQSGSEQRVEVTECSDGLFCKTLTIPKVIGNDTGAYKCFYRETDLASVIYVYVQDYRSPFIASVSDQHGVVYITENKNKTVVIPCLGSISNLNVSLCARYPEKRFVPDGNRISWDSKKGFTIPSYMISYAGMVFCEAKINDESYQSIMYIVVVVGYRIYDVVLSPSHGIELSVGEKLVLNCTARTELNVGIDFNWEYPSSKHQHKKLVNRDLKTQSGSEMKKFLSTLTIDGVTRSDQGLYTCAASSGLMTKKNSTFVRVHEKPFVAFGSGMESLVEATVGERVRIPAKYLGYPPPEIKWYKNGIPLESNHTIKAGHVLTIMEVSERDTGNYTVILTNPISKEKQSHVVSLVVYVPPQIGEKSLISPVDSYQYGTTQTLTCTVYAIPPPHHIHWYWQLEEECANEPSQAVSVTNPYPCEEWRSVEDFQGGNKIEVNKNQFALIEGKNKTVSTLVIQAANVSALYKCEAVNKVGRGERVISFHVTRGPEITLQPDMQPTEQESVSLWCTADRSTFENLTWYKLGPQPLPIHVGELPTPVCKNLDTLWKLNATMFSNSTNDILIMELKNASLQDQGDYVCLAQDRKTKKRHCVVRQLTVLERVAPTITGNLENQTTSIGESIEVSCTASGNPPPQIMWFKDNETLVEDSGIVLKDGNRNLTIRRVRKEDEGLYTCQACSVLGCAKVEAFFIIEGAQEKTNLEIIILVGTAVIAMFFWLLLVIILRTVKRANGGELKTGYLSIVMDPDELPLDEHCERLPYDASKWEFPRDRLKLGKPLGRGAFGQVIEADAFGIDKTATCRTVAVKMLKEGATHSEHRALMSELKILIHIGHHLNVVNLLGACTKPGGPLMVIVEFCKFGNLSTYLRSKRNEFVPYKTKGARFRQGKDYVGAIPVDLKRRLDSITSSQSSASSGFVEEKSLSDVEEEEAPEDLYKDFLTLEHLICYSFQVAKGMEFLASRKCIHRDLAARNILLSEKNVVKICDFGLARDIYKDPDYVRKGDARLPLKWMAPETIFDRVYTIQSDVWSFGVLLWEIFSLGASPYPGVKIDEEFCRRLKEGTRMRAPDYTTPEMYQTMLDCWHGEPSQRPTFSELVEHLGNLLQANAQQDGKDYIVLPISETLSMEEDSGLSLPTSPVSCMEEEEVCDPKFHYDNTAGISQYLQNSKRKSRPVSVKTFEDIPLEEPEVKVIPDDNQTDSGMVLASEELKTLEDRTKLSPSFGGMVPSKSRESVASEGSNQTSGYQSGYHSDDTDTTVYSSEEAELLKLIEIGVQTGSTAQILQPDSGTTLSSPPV
structure (smiles),measurement,setting,value
Cc1nnc2c(Oc3ccc(NC(=O)c4cnn(-c5ccc(Cl)cc5)c4C(F)(F)F)cc3F)nccn12 [17l],IC50,A549 cells [1],980 ± 80 nM
same,IC50,MCF-7 cells,1050 ± 170 nM
same,IC50,Hela cells,1280 ± 250 nM
same,IC50,c-Met kinase,26 nM
same,IC50,VEGFR-2,2600 nM
same,IC50,EGFR^WT,> 10000 nM
same,IC50,PC-9 cells,38200 ± 1580 nM
same,IC50,H460 cells,5860 ± 770 nM
same,IC50,H1975 cells,15300 ± 1180 nM
same,cell block rate in G0/G1 phase,A549 cells [2],76.14%
same,Q1-LR,"A549 cells [3]; A549, 0.25 μM",2.15%
same,Q1-UL,"A549 cells [3]; A549, 0.25 μM",4.27%
same,Q1-UR,"A549 cells [3]; A549, 0.25 μM",2.71%
same,total apoptosis rate,"A549 cells [3]; A549, 0.25 μM",4.86%
same,Q1-LL,"A549 cells [3]; A549, 0.25 μM",90.88%
same,Q1-LR,"A549 cells [3]; A549, 0.50 μM",3.07%
same,Q1-UL,"A549 cells [3]; A549, 0.50 μM",1.53%
same,Q1-UR,"A549 cells [3]; A549, 0.50 μM",3.38%
same,total apoptosis rate,"A549 cells [3]; A549, 0.50 μM",6.45%
same,Q1-LL,"A549 cells [3]; A549, 0.50 μM",92.02%
same,Q1-LR,"A549 cells [3]; A549, 1.00 μM",5.52%
same,Q1-UL,"A549 cells [3]; A549, 1.00 μM",0.30%
same,Q1-UR,"A549 cells [3]; A549, 1.00 μM",6.09%
same,total apoptosis rate,"A549 cells [3]; A549, 1.00 μM",11.61%
same,Q1-LL,"A549 cells [3]; A549, 1.00 μM",88.09%
same,protein levels of p-c-Met (Tyr1003),p-c-Met (Tyr1003),inhibited
same,inhibitory effect on p-VEGFR-2 (Tyr1059),p-VEGFR-2 (Tyr1059),not obvious
same,phosphorylation protein of downstream signals ERK1/2 and AKT,ERK1/2 and AKT,significantly inhibited
same,hemolytic rate,sheep red blood cells,less than 5%

# — article PMC9019572, “Design, Synthesis, and Biological Evaluation of [1,2,4]triazolo[4,3-a] Pyrazine Derivatives as Novel Dual c-Met/VEGFR-2 Inhibitors” (Frontiers in Chemistry, 2022)
